Like-named read-outs stand apart in the source and are kept apart here.
Tests used:
[1] = test system: tyrosinase activity in mouse melanoma cells; conditions: Cloudman S91; cited from earlier work
[2] = test system: tyrosinase activity in human melanocytes from white-skinned individuals; assay: Tyrosinase activity in human melanocytes from white skin; type: cell-based; conditions: cell strain 69W; up to four hours; FIG. 8
Description: (§1) The mouse melanoma cell lines used to study the effects of lysosomotropic agents herein were the Cloudman S91 cell line (ATCC no. CCL 53.1) and two subclones of this line developed in our laboratory, the amelanotic line, AM-7, and a melanotic line, MEL-11A. All melanoma cell lines were grown in Ham's F-10 nutrient medium supplemented with 10% horse serum, penicillin (100 units/ml), and streptomycin (100 μg/ml). The normal human melanocyte cell strains used in this study were derived from foreskins of either neonares or from boys 2-6 years old. Human melanocyte cultures were grown in Ham's F-10 nutrient medium supplemented with 10% horse serum, 5% fetal bovine serum (FBS), 32 nM TPA (12-O-tetradecanoylphorbol 13-acetate), 10^-4 M IBMX(3-isobutyl-1-methylxanthine), penicillin (100 units/ml), and streptomycin (100 μg/ml).
(§2) To determine tyrosinase activity in situ in either melanoma cells or in human melanocyte cultures, the tyrosine hydroxylase activity of the enzyme was determined. Cells were seeded into 60-mm culture dishes at 2×10^5 cells/dish and allowed to attach overnight. The medium was then exchanged for the appropriate growth medium supplemented with 1 μCi/ml of [^3 H]tyrosine (L-ring-3,5-^3 H]-tyrosine, DuPont New England Nuclear), and with hormones, where indicated. Cells were grown in labeled medium for 24 hours, and at this time, the medium was removed and assayed for the presence of ^3 H2 O using the charcoal absorption method of Pomerantz. Tyrosinase activity in cell homogenates was determined by sonicating cell pellets in 0.1-M sodium phosphate buffer (pH 6.8) and then incubating 50-μl aliquots in 0.5 ml of a reaction mixture containing 0.1-mM tyrosine, 2 μCi/ml of [^3 H]tyrosine, 0.1-mM L-DOPA (dihydroxyphenylalanine), and 0.1 mM PMSF (phenylmethylsulfonyl fluoride) at 37° C. for 2 hours. Reactions were terminated by the addition of 1 ml of charcoal (10% w/v in 0.1-N HCl). Samples were centrifuged, and the supernatants removed for determination of the amount of ^3 H2 O produced.
Dose/response parameters for ammonium chloride action were determined. […] Since tyrosinase is the rate-limiting enzyme for melanin synthesis, the stimulation of this enzyme by ammonium chloride should lead to increased melanin content of stimulated cells. […] Ammonium chloride increased tyrosinase activity in melanocytes from white-skinned individuals twenty-fold within 24 hours and by this time melanin contents had increased two-fold. Two other lysosomotropic agents, monensin and nigericin, were tested for their effects on tyrosinase activity. […] Thus, lysosomotropic agents have the ability to stimulate tyrosinase activity and melanin production in human melanocytes derived from white-skinned individuals, and to reduce melanin production in melanocytes from black-skinned people.

[3] = test system: tyrosinase activity in human foreskin organ cultures; assay: Tyrosinase activity in human foreskin organ cultures (tyrosine hydroxylase assay); type: cell-based; conditions: for activity at 1000 µM: Homo sapiens, read-out: Tyrosinase Activity, Percentage of control; for activity at 1000 µM / Tyrosinase activity stimulated, percentage of black foreskins / Tyrosinase activity unaffected, percentage of black foreskins / Tyrosinase activity stimulated, percentage of white foreskins / Tyrosinase activity unaffected, percentage of white foreskins: 72 h; for activity at 1000 µM / Tyrosinase Activity: Table 3, theophylline 1 mM, 3 days; for Tyrosinase activity stimulated, percentage of black foreskins / Tyrosinase activity unaffected, percentage of black foreskins / Tyrosinase activity stimulated, percentage of white foreskins / Tyrosinase activity unaffected, percentage of white foreskins: Table 1, Theophylline 1 mM, MSH 2 × 10^-7 M, dbcAMP 0.1 mM, D-phe-MSH 10^-8 M; for Tyrosinase activity stimulated, percentage of black foreskins / Tyrosinase activity unaffected, percentage of black foreskins: B = black; for Tyrosinase activity stimulated, percentage of white foreskins / Tyrosinase activity unaffected, percentage of white foreskins: W = white; for stimulation of tyrosinase activity: human foreskins, 72 hours
Description: At the time of surgical removal, human foreskins were placed on sterile gauze saturated with sterile IMDM medium (Iscove's modified Dulbecco's medium purchased from Irvine Scientific of Santa Ana, Calif.) for transportation from the Hospital nursery to the laboratory. The tissues were rinsed in sterile IMDM medium containing 500 U/ml penicillin and 500 μg/ml of streptomycin for 5 minutes. Under sterile conditions, an intradermal injection of medium was performed from the dermal side prior to dissection of the mucous membrane and lower dermis by scissors to make the thickness of skins equal. The foreskins were then cut into approximately 3 mm×3 mm squares and either frozen at -75° C. or placed in organ culture as described hereafter.
The organ culture medium was prepared from IMDM with glutamine supplemented with 20% horse serum, 5% fetal bovine serum, 100 U/ml penicillin, 100 μg/ml streptomycin and 3 mg/ml sodium bicarbonate. The serums were obtained from Hyclone Lab. Inc. of Logan Utah. Culture units were prepared by placing sterilized filters (AP20 025 00, Millipore) over sterilized support screens ([…] Swinnex filter support screens, Millipore) in the wells of 6-well tissue culture plates (Falcon 3046) with medium added to the wells such that the skin support screens floated and the filter absorbed the medium from beneath. The tissue samples were placed, epidermis up, on top of the saturated filters and incubated at 37° C. in a 5% CO2 humidified atmosphere. The medium was changed everyday. Harvested cultures were frozen at -75° C.
Tyrosinase activity in human skin organ cultures was determined by measuring the tyrosine hydroxylase activity of the enzyme. The assay measures the production of ^3 H2 O during the conversion of [^3 H]tyrosine to L-DOPA. Weighed skin preparations were incubated in 0.3 ml of a reaction mixture containing 0.01 mM of L-tyrosine, 5-6 uCi/ml of [^3 H]tyrosine and 0.1 mM L-DOPA in 0.1M of pH 6.8 phosphate buffer for 4 hours at 37° C. To terminate the reaction, 1 ml of phosphate buffer was added, the tubes vortexed, and 0.4 ml aliquots removed in triplicate and mixed with an equal volume of Norit SG activated charcoal (10% w/v, in 0.1N HCl). Following centrifugation at 2000×g for 10 min, the supernatants (0.5 ml) were placed in scintillation vials, scintillation fluid added, and vials counted in a TM Analytic 6895 scintillation counter equipped with a DPM processor.
Human foreskins were treated with the compounds shown in Table 1, placed in culture, and incubated for 72 hours. The skins were then assayed for tyrosinase activity with the tyrosine hydroxylase assay method as described herein.
The medium and compounds were changed daily. Tyrosinase activity was determined by measuring the tyrosine hydroxylase activity of the enzyme.
Human foreskin organ cultures were treated with the compounds listed in Table 3 for 3 days and tyrosinase activity determined as described herein. Theophylline was used at 1 mM.

[4] = test system: tyrosinase activity in human melanocytes; assay: Tyrosinase responses in human melanocytes (Table 6); type: cell-based; conditions: Table 6, 10^-7 M except IBMX 10^-4 M, theophylline 1 mM, ammonium chloride 10 mM, A23187 not given, melanocytes from skin type III
Description: as §1, §2
Hormone responsiveness in human melanocyte cell cultures were examined (for these studies, melanocytes derived from skin type III were used). […] Tyrosinase activity and melanin content typically double with a 48-hour exposure to IBMX. […] The steroid hormones, for the most part, caused little, if any, change in tyrosinase activity at the concentrations used.

[5] = test system: tyrosinase activity in mouse melanoma cells; assay: Tyrosinase responses in mouse melanoma cells (Table 6); type: cell-based; conditions: for Effect on Tyrosinase Activity, Mouse Melanoma: Table 6, 10^-7 M except IBMX 10^-4 M, theophylline 1 mM, ammonium chloride 10 mM, A23187 not given
Description: as §1
as §2, with “produced. […]” for “produced.”

[6] = White skin (control 0.31 ± 0.03)
[7] = first Black skin (control 2.55 ± 0.13)
[8] = second Black skin (control 3.09 ± 0.12)

Nc1ncnc2c1nc(Br)n2[C@@H]1O[C@@H]2COP(=O)(O)O[C@H]2[C@H]1O [8-bromo cAMP]
mimicking of the MSH response [1]: mimicked

CO[C@@H]1C[C@@H](C[C@H]2CC[C@H](C)[C@H]([C@@H](C)C(=O)O)O2)O[C@]2(O[C@](C)([C@H]3CC[C@@](C)([C@@H]4O[C@@H]([C@H]5O[C@@](O)(CO)[C@H](C)C[C@@H]5C)C[C@@H]4C)O3)C[C@H]2C)[C@@H]1C [nigericin]
stimulation of tyrosinase activity [2]: stimulated tyrosinase activity

Cn1c(=O)c2[nH]cnc2n(C)c1=O [Theophylline, theophylline]
activity at 1000 µM [3, 6]: 307%
activity at 1000 µM [3, 7]: 212%
activity at 1000 µM [3, 8]: 197%
Tyrosinase activity stimulated, percentage of black foreskins [3]: 92%
Tyrosinase activity unaffected, percentage of black foreskins [3]: 8%
Tyrosinase activity stimulated, percentage of white foreskins [3]: 86%
Tyrosinase activity unaffected, percentage of white foreskins [3]: 14%
Tyrosinase Activity [3, 6]: 0.95 ± 0.05 pmoles ^3 H2 O/hr/mg skin
Tyrosinase Activity [3, 7]: 5.40 ± 0.26 pmoles ^3 H2 O/hr/mg skin
Tyrosinase Activity [3, 8]: 6.1 ± 0.24 pmoles ^3 H2 O/hr/mg skin
stimulation of tyrosinase activity [3]: stronger stimulation of tyrosinase
activity at 1000 µM ([4]; Homo sapiens, Melanocyte, read-out: Effect on Tyrosinase Activity, Human Melanocyte): 150 to 200%
response of mouse melanoma cells ([5]; compounds that raise intracellular cAMP levels or MSH): respond vigorously
mimicking of the MSH response [1]: mimicked

CCCCCCCCCCCCCC(=O)O[C@@H]1[C@@H](C)[C@@]2(O)[C@@H](C=C(CO)C[C@]3(O)C(=O)C(C)=C[C@@H]23)[C@@H]2C(C)(C)[C@]12OC(C)=O [TPA, 12-O-tetradecanoylphorbol 13-acetate]
Effect on Tyrosinase Activity, Human Melanocyte [4]: No effect

C=C1CC[C@H](O)C/C1=C/C=C1\CCC[C@]2(C)[C@@H]([C@H](C)CCCC(C)C)CC[C@@H]12 [Vitamin D3]
Effect on Tyrosinase Activity, Human Melanocyte [4]: No effect
Effect on Tyrosinase Activity, Mouse Melanoma [5]: No effect

Insulin: Insulin
Effect on Tyrosinase Activity, Human Melanocyte [4]: No effect

C[C@]12CC[C@H]3[C@@H](CCC4=CC(=O)CC[C@@]43C)[C@@H]1CC[C@@H]2O [Testosterone]
Effect on Tyrosinase Activity, Human Melanocyte [4]: No effect
Effect on Tyrosinase Activity, Mouse Melanoma [5]: No effect

CC(=O)[C@H]1CC[C@H]2[C@@H]3CCC4=CC(=O)CC[C@]4(C)[C@H]3CC[C@]12C [Progesterone]
Effect on Tyrosinase Activity, Human Melanocyte [4]: ± (100-150% of control)
Effect on Tyrosinase Activity, Mouse Melanoma [5]: ± (100-150% of control)

CCCC(=O)Nc1ncnc2c1ncn2[C@@H]1O[C@@H]2COP(=O)(O)O[C@H]2[C@H]1OC(=O)CCC [dbcAMP, dibutyryl cyclic AMP]
Tyrosinase activity stimulated, percentage of black foreskins [3]: 33%
Tyrosinase activity unaffected, percentage of black foreskins [3]: 67%
Tyrosinase activity stimulated, percentage of white foreskins [3]: 25%
Tyrosinase activity unaffected, percentage of white foreskins [3]: 75%
stimulation of tyrosinase activity [3]: less effective in stimulating tyrosinase activity
mimicking of the MSH response [1]: mimicked

C[C@]12CC[C@@H]3c4ccc(O)cc4CC[C@H]3[C@@H]1CC[C@@H]2O [Estradiol]
Effect on Tyrosinase Activity, Human Melanocyte [4]: Inhibited
Effect on Tyrosinase Activity, Mouse Melanoma [5]: No Effect

CC1(C)O[C@@H]2C[C@H]3[C@@H]4CCC5=CC(=O)C=C[C@]5(C)[C@@]4(F)[C@@H](O)C[C@]3(C)[C@]2(C(=O)CO)O1 [Triamcinolone acetonide]
Effect on Tyrosinase Activity, Human Melanocyte [4]: ± (100-150% of control)
Effect on Tyrosinase Activity, Mouse Melanoma [5]: ± (100-150% of control)

CCCCC[C@H](O)/C=C/[C@H]1[C@H](O)CC(=O)[C@@H]1CCCCCCC(=O)O [Prostaglandin E1]
Effect on Tyrosinase Activity, Human Melanocyte [4]: + (150-200%)

CC[C@@]1([C@@H]2O[C@@H]([C@H]3O[C@@](O)(CO)[C@H](C)C[C@@H]3C)C[C@@H]2C)CC[C@H]([C@]2(C)CC[C@]3(C[C@H](O)[C@@H](C)[C@@H]([C@@H](C)[C@@H](OC)[C@H](C)C(=O)O)O3)O2)O1 [monensin]
stimulation of tyrosinase activity [2]: stimulated tyrosinase activity

CNc1ccc2oc(C[C@H]3O[C@@]4(CC[C@H]3C)O[C@H]([C@H](C)C(=O)c3ccc[nH]3)[C@H](C)C[C@H]4C)nc2c1C(=O)O [A23187]
Effect on Tyrosinase Activity, Human Melanocyte [4]: No effect
Effect on Tyrosinase Activity, Mouse Melanoma [5]: Inhibited
